Source: patent US20230110676A1, “Method of Treating Diseases” (priority 2020, published 2023)

Key:
[1] = system: daf-16 mutant worm; experiment: Life-extension effect on daf-16 mutant worm; format: in vivo, C. elegans
From the text: To address this issue, the large collection of C. elegans mutants in Caenorhabditis Genetics Center was again utilized in this example. Among the mutants examined, the daf-16 mutant results stood out (FIGS. 3A, 3B, and 3C). […] Among genes of the IIS pathway, daf-2 encodes an insulin-like receptor, and it is the starting point of the pathway that eventually leads to daf-16. Daf-16 is the hub, where information from several different pathways merge and then use to regulate many physiological processes. Worm daf-16 mutant has an average life-span that is […] the N2 worm (FIGS. 3A, 3B, and 3C).

[2] = system: N2 C. elegans; experiment: Life-extension effect on worm under regular culture conditions; format: in vivo
From the text: In this example, the biological functions of ergothioneine were investigated using C. elegans as the model system. Using C. elegans as the model has several prominent advantages, including short life cycle, simple experimental manipulation, and rich collection of publicly available genetic mutants (e.g., Caenorhabditis Genetics Center). In addition, its genome comprises ⅔ of human disease-related genes.
(§1) To test the biological effect of ergothioneine, the first set of experiments was to test the toxicity level of ergothioneine on the worm model. In humans, ergothioneine is enriched up to 2 mM concentration in many parts of the body. […] At 150 μM, the lifespan of the wild type worm can be extended by 30-40% (FIG. 2A). Over the last two decades, there is numerous evidence supporting the life-extension effect by caloric restriction from various model systems (yeast, worm, fly, and mouse). Thus, the effect of ergothioneine on worm Eat-2 mutant was also examined.

[3] = system: MPTP Parkinson's disease mouse model; experiment: MPTP Parkinson's disease mouse model, latency test on rotatory plate/rod; format: in vivo; details: mice, 20 mg/Kg MPTP for seven days; ergothioneine 10, 20 mg/kg co-injection or 40 mg/kg in water, 7 days
Description: (§2) Parkinson mouse model was induced by 1-methyl-4-phenyl-1,2,3,6-tetrahydropyridine (MPTP), which induced toxicity to dopaminergic neurons (latency test). Behavior test was done by testing mouse behavior: how long can they hold on rotatory plate/rod. The longer they stay, the better their health conditions. After MPTP treatment, mice are clearly much weaker. […] Significance of difference was determined by unpaired two-tailed t-test. #P<0.05 compared with control, *P<0.05, **P<0.01, ****P<0.0001 compared with MPPP-treated control. 1) Latency test results of control group with no MPTP or ergothioneine; 2) Latency test results of mice treated with 20 mg/Kg of MPTP for seven days; 3) Latency test results of mice treated with 20 mg/Kg of MPTP and 10 mg/kg of ergothioneine (co-injection) for seven days; 4) Latency test results of mice treated with 20 mg/Kg of MPTP and 20 mg/kg of ergothioneine (co-injection) for seven days; 5) Latency test results of mice treated with 20 mg/Kg of MPTP and 40 mg/kg of ergothioneine in water for seven days.

[4] = system: mouse; experiment: Open field experiment, physical activities of disease group at week #57; format: in vivo; details: mice, week #57, treated vs control disease group
From the text: FIGS. 5A and 5B show the physical activities of untreated disease group and treated disease group at week #57 (open field experiment). A) Real time trace of mouse movement. […] B) Quantitative measurement of the distance each mouse moved during the testing period and the time they spent in the open area.

[5] = system: worm; experiment: Protective effect on MPP+ detrimental effect, worm survival rate; format: in vivo; details: 0.75 mM of MPTP plus 400 μM ergothioneine; ~50% without ergothioneine
Description: However, ergothioneine can offer significant protection. The last column is the worm with no ergothioneine or MPTP treatment. The first column is the worm survival rate after treating with 0.75 mM of MPTP.

[6] = system: N2 worms; experiment: Protective effect under paraquat-induced oxidative stress; format: in vivo, C. elegans; details: N2 worms treated with paraquat
Description: Encouraged by the clear life-extension effect on worm model under regular culture conditions in the above example, the protective effect of ergothioneine under stresses was examined. In the first experiment, the worm was treated with paraquat to induce oxidative stress. Under the paraquat-induced oxidative stress conditions, N2 worms' life span was decreased by nearly 50% (FIG. 2C vs. FIG. 2A).

[7] = system: N2 worm; experiment: Protective effect under heat shock conditions; format: in vivo, C. elegans; details: N2 worm moved from 20° C. to 42° C.; a few hundred micromolar; 3 hours without
Description: Besides the oxidative stress, the protective effect of ergothioneine for the worm under heat shock conditions was also examined. After the worms were cultured multiple days, they were then moved from 20° C. to 42° C. Under such a heat-shock condition, 50% of the worm died within 3 hours. However, in the presence of a few hundred micromolar concentration of ergothioneine, it extends N2 worm's average survival time from 3 hours to nearly 8-9 hours (FIG. 2D).

[8] = system: MPTP Parkinson's disease mouse model; experiment: MPTP Parkinson's disease mouse model, pole test; format: in vivo; details: mice, 20 mg/Kg MPTP for seven days; ergothioneine 10, 20 mg/kg co-injection or 40 mg/kg in water, 7 days
Description: as §2, with “by MPTP.” for “by 1-methyl-4-phenyl-1,2,3,6-tetrahydropyridine (MPTP), which induced toxicity to dopaminergic neurons (latency test).”, “long does it take for the mice to climb to the top of a rod. The shorter time” for “long can”, “they took,” for “they hold on rotatory plate/rod. The longer they stay,”, “health conditions are.” for “health conditions.”, “t-test. ###P<0.05” for “t-test. #P<0.05”, “control, ***P<0.001,” for “control, *P<0.05, **P<0.01,”

[9] = system: worm Eat-2 mutant; experiment: Life-extension effect on caloric-restriction worm mutant; format: in vivo, C. elegans; details: Eat-2 mutant (partial starvation)
Description: as §1

[10] = system: a-Synuclein Overexpression Worm Model; experiment: Heat shock experiment in α-synuclein overexpression worm Parkinson's disease model; format: in vivo; details: 1.6 mM, 3 hours without
Description: FIGS. 13A and B show Protective Effect for Heat-shock for Both Wild-type and a-Synuclein Overexpression Worm Model (Parkinson's disease). Heat shock experiment. α-synuclein was expressed to create worm parkinson's disease model on worm. […] With 1.6 mM of ergothioneine, 50% survival time increased to 8 hours.

C[N+](C)(C)[C@@H](Cc1c[nH]c(=S)[nH]1)C(=O)[O-] [ergothioneine]
life-extension effect on daf-16 mutant [1]: the life-extension effect was abolished
life-extension effect ([2]; N2 C. elegans, concentrations as low as 50 μM): robust life-extension effect
lifespan extension ([2]; wild type worm, 150 μM): 30-40%
latency test (time held on rotatory plate/rod) [3]: mice are clearly protected from these detrimental effects
physical activities in open field [4]: demonstrated much more activities
worm survival rate [5]: ~90%
protective effect under oxidative stress [6]: clearly offers protective effects
average survival time under heat shock [7]: 8 to 9 h
pole test (time to climb to the top of a rod) [8]: mice are clearly protected from these detrimental effects
life extension of Eat-2 worm mutant [9]: can further extend the life
50% survival time under heat shock [10]: 8 h
